target: T1, Nanoluciferase-BRD9 fusion protein (3×FLAG-NLuc-BRD9) in SYO-1 cells (Homo sapiens, UniProt Q9H8M2); test: SYO1 BRD9 NanoLuc Degradation Assay; format: cell-based; details: Table 6B; SYO-1 cells expressing 3×FLAG-NLuc-BRD9, 6 hours incubation, 1 μM top dose; read-out: SYO1 BRD9-NanoLuc degradation IC50
T1 construct: expressed in transfected cells; host or cells: SYO-1
T1 sequence (Q9H8M2 1-597): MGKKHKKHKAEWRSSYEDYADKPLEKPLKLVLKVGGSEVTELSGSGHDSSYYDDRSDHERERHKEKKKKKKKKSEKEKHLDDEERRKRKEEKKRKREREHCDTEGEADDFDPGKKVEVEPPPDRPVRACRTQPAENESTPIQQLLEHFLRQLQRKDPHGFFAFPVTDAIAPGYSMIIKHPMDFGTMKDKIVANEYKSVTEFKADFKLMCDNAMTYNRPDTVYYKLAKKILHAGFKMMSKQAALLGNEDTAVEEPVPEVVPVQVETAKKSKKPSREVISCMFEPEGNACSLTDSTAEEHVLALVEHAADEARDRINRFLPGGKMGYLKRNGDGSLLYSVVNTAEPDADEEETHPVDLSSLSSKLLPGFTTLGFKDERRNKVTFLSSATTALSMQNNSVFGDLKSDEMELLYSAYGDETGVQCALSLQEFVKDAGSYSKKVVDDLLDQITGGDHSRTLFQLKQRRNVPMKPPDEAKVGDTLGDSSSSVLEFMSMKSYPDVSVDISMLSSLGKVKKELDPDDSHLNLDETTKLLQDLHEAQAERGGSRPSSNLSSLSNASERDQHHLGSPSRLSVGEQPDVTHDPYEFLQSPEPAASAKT
In short: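 NanoLuc signal, read by Nano-Glo luminescence after 6 h compound exposure, gives % inhibition against DMSO-treated cells (high control) and cells given 1 μM of a standard BRD9 degrader (low control). Test compounds ran as 10-point 3-fold series, top 1 μM final, in duplicate on SYO-1 cells stably expressing 3×FLAG-NLuc-BRD9.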

DC50 [nM]	Structure (SMILES)
100 to 1000	COc1cc(-c2cn(C)c(=O)c3cnc(N(C)C)cc23)c2c(c1)N(CCCCCCCCOc1ccc3c(c1)C(=O)N(C1CCC(=O)NC1=O)C3=O)CC2 (centres unmarked) [Compound D45]
< 10	COc1cc(-c2cn(C)c(=O)c3cnc(N(C)C)cc23)cc(OC)c1CN(C)C12CC(C(=O)NCCCCCOc3ccc4c(c3)C(=O)N(C3CCC(=O)NC3=O)C4=O)(C1)C2 (centres unmarked) [Compound D40]
10 to 100	COc1cc(-c2cn(C)c(=O)c3cnc(N(C)C)cc23)cc(OC)c1CN1CCC(CCN2CCN(C3CCC(=O)NC3=O)C(=O)C2)CC1 (centres unmarked) [Compound D88]
< 10	COc1cc(-c2cn(C)c(=O)c3cnc(N(C)C)cc23)cc(OC)c1CN1CCN(CC(C)(C)Oc2ccc3c(c2)C(=O)N(C2CCC(=O)NC2=O)C3=O)CC1 (centres unmarked) [Compound D96]
< 10	COc1cc(-c2cn(C)c(=O)c3cnc(N4CCC4)cc23)cc(OC)c1CN1CC(c2ccc3c(c2)C(=O)N(C2CCC(=O)NC2=O)C3=O)C1 (centres unmarked) [Compound D146]
< 10	COc1cc(-c2cn(C)c(=O)c3cnc(N(C)C)cc23)cc(OC)c1CN1CCC(C(=O)N2CCC3(CC2)CC(Oc2cc4c(cc2F)C(=O)N(C2CCC(=O)NC2=O)C4=O)C3)CC1 (centres unmarked) [Compound D118]
< 10	COc1cc(-c2cn(C)c(=O)c3cnc(N(C)C)cc23)cc(OC)c1CN1CCN(C[C@H](C)Oc2ccc3c(c2)C(=O)N(C2CCC(=O)NC2=O)C3=O)CC1 (some centres unmarked) [Compound D83]
< 10	COc1cc(-c2cn(C)c(=O)c3cnc(N4CCC4)cc23)ccc1CN1CCC2(CC1)CN(c1ccc3c(c1)C(=O)N(C1CCC(=O)NC1=O)C3)C2 (centres unmarked) [Compound D149]
< 10	COc1cc(-c2cn(C)c(=O)c3cnc(N(C)C)cc23)cc(OC)c1CN1CC(CC(=O)N2CCC3(CC2)CC(Oc2ccc4c(c2)C(=O)N(C2CCC(=O)NC2=O)C4=O)C3)C1 (centres unmarked) [Compound D42]
< 10	COc1cc(-c2cn(C)c(=O)c3cnc(N(C)C)cc23)cc(OC)c1CN1CCN([C@H](C)COc2ccc3c(c2)C(=O)N(C2CCC(=O)NC2=O)C3=O)CC1 (some centres unmarked) [Compound D77]
10 to 100	COc1cc(-c2cn(C)c(=O)c3cnc(N(C)C)cc23)cc(OC)c1CN1CCC(CCNC(=O)NCc2ccc3c(c2)C(=O)N(C2CCC(=O)NC2=O)C3=O)CC1 (centres unmarked) [Compound D74]
< 10	COc1cc(-c2cn(C)c(=O)c3cnc(N4CCOCC4)cc23)cc(OC)c1CN1CC(Oc2ccn3c(=O)n(C4CCC(=O)NC4=O)nc3c2)C1 (centres unmarked) [Compound D144]
< 10	CNc1cc2c(-c3cc(OC)c(CN4CCN(CCC5CCN(c6ccc7c(c6)C(=O)N(C6CCC(=O)NC6=O)C7=O)CC5)CC4)c(OC)c3)cn(C)c(=O)c2cn1 (centres unmarked) [Compound D106]

same assay, conditions: Table 6C; SYO-1 cells expressing 3×FLAG-NLuc-BRD9, 6 hours incubation, 1 μM top dose; read-out: SYO1 BRD9-NanoLuc degradation IC50

DC50 [nM]	Structure (SMILES)
< 10	COc1cc(-c2cn(C)c(=O)c3cnc(N4CCOCC4)cc23)cc(OC)c1CN1CCC(C(N2CCC3(CC2)CC(Oc2ccc4c(c2)C(=O)N(C2CCC(=O)NC2=O)C4=O)C3)C(F)(F)F)CC1 (centres unmarked) [Compound D196]
< 10	COc1cc(-c2cn(C)c(=O)c3cnc(C4CC4)cc23)cc(OC)c1CN1CCC2(CC1)CN(c1ccc3c(c1)CN(C1CCC(=O)NC1=O)C3=O)C2 (centres unmarked) [Compound D220]
< 10	COc1cc(-c2cn(C)c(=O)c3cnc(C4CC4)cc23)cc(OC)c1CN1CCC(CN2CCC3(CC2)CC(Oc2ccc4c(c2)C(=O)N(C2CCC(=O)NC2=O)C4)C3)CC1 (centres unmarked) [Compound D302]
≥ 1000	COc1cc(-c2cn(C)c(=O)c3cnc(N(C)C)cc23)cc(OC)c1CN1CCC2(CC1)CC(N1CCN(C3CCC(=O)NC3=O)C(=O)C1)C2 (centres unmarked) [Compound D251]
< 10	COc1cc(-c2cn(C)c(=O)c3cnc(N4CC(C)(OC)C4)cc23)cc(OC)c1CN1CC(CN2CCC3(CC2)CN(c2ccc4c(c2)C(=O)N(C2CCC(=O)NC2=O)C4)C3)C1 (centres unmarked) [Compound D210]
< 10	COc1cc2c(-c3cc(OC)c(CN4CCN(CCC5CCN(c6ccc7c(c6)C(=O)N(C6CCC(=O)NC6=O)C7)CC5)CC45CCC5)c(OC)c3)cn(C)c(=O)c2cn1 (centres unmarked) [Compound D258]
< 10	COc1cc(-c2cn(C)c(=O)c3cnc(N4CCC4)cc23)cc(OC)c1CN(C)c1ccc2c(c1)CN(C1CCC(=O)NC1=O)C2=O (centres unmarked) [Compound D202]

— US12391686B2, “Compounds and uses thereof” (Foghorn Therapeutics Inc., priority 2019, dated 2025)
